Where a name gives a salt, the structure may show the parent alone. Read-outs that look alike come from different tables or passages of the source.
Key:
[1] = system: Ba/F3-FGFR3-transfected cells; experiment: Ba/F3-FGFR3 (plus IL3) cellular proliferation assay, counterscreen with 10 ng/ml murine IL3; type: cell-based; details: read-out: BAF3-FGFR3 (PLUS IL3) pIC50 (converted)
Procedure, shortened: (§1)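 With or without 10 ng/ml murine IL3, FGFR3-dependent Ba/F3 cells were treated 24 h with compound, then viability was gauged by Alamar Blue fluorescence after 4 h (ex 540/em 590 nm).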

FGFR4 (h) = FGFR4 (h) (Homo sapiens, UniProt P22455); experiment: FGFR4 (enzymatic assay), TR-FRET; type: biochemical; details: FGFR 4 pIC50, enzymatic assay; average values if tested multiple times
[2] = system: Ba/F3-KDR-transfected cells; experiment: Ba/F3-KDR (plus IL3) cellular proliferation assay, counterscreen with 10 ng/ml murine IL3; type: cell-based; details: read-out: BAF3-KDR (PLUS IL3) pIC50 (converted)
Procedure, shortened: (§2)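 Cells grown with test compound at 37° C and 5% CO2 for 24 hours were given a resazurin/ferricyanide/ferrocyanide reagent for 4 hours before fluorescence (540/590 nm) was recorded.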

[3] = system: Ba/F3-FGFR1-transfected cells; experiment: Ba/F3-FGFR1 (plus IL3) cellular proliferation assay, counterscreen with 10 ng/ml murine IL3; type: cell-based; details: read-out: BAF3-FGFR1 (PLUS IL3) pIC50 (converted)
Procedure, shortened: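 Proliferation read-out: resazurin-based Alamar Blue fluorescence (540/590 nm) after 4 h, following 24 h compound treatment of 20000 Ba/F3-FGFR1 cells per well in 10% FBS RPMI at 37° C. IL3 counterscreen used the same protocol plus 10 ng/ml murine IL3.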

[4] = molecular target: T1, Ba/F3-FGFR1-transfected cells (Homo sapiens, UniProt P11362); experiment: Ba/F3-FGFR1 (minus IL3) cellular proliferation assay, Alamar Blue; type: cell-based
T1 construct: BAF3-FGFR1 (MIN IL3) pIC50; other: minus IL3
Procedure, shortened: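 Viability of transfected Ba/F3-FGFR1 cells (20000 per well, RPMI-1640 with 10% FBS and 2 mM L-glutamine) was scored by resazurin-based Alamar Blue reduction over 4 h, after 24 h treatment with compound at 37 °C under 5% CO2.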

[5] = molecular target: T2, Ba/F3-KDR-transfected cells (Homo sapiens, UniProt P35968); experiment: Ba/F3-KDR (minus IL3) cellular proliferation assay, Alamar Blue; type: cell-based
T2 construct: BAF3-KDR (MIN IL3) pIC50; other: minus IL3
Procedure, shortened: as §2

FGFR2 (h) = FGFR2 (h) (Homo sapiens, UniProt P21802); experiment: FGFR2 (enzymatic assay), TR-FRET; type: biochemical; details: enzymatic assay; average values if tested multiple times; read-out: FGFR 2 pIC50 (converted)
Procedure, shortened: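 hFGFR2 150 ng/ml; Btn-Flt3 500 nM; ATP 0.4 μM; 50 mM HEPES pH 7.5, 6 mM MnCl2, 1 mM DTT, 0.1 mM Na3VO4, 0.01% Triton-X-100; 1% DMSO final.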

[6] = molecular target: T3, Ba/F3-FGFR3-transfected cells (Homo sapiens, UniProt P22607); experiment: Ba/F3-FGFR3 (minus IL3) cellular proliferation assay, Alamar Blue; type: cell-based
T3 construct: BAF3-FGFR3 (MIN IL3) pIC50; other: minus IL3
Procedure, shortened: as §1

FGFR1 (h) = FGFR1 (h) (Homo sapiens, UniProt P11362); experiment: FGFR1 (enzymatic assay), TR-FRET; type: biochemical; details: average values if tested multiple times, read-out: FGFR 1 pIC50 (converted)
[7] = plus IL3 (10 ng/ml murine IL3, counterscreen)

FGFR1 (h), sequence (P11362 22-822): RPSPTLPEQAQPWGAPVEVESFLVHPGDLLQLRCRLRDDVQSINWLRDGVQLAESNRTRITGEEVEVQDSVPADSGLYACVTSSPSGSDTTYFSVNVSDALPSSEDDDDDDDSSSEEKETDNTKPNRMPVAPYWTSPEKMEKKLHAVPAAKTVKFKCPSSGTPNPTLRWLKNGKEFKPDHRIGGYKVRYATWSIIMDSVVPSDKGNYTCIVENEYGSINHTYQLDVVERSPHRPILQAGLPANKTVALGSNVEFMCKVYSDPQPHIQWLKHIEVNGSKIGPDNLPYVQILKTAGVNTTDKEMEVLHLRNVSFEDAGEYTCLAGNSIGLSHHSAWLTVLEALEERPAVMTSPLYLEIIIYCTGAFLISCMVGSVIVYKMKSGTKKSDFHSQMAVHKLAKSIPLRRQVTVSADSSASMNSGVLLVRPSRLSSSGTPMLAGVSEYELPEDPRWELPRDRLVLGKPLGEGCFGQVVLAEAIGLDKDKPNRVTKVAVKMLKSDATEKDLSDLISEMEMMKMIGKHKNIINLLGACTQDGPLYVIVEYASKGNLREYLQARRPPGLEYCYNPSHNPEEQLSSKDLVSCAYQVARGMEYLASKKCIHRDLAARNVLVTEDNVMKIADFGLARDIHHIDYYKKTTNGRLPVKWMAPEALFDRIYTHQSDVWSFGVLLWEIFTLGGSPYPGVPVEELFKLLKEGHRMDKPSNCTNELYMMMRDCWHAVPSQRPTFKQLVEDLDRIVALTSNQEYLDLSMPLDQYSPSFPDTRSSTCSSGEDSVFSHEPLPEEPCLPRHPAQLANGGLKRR
T3 sequence (P22607 whole entry, change not shown): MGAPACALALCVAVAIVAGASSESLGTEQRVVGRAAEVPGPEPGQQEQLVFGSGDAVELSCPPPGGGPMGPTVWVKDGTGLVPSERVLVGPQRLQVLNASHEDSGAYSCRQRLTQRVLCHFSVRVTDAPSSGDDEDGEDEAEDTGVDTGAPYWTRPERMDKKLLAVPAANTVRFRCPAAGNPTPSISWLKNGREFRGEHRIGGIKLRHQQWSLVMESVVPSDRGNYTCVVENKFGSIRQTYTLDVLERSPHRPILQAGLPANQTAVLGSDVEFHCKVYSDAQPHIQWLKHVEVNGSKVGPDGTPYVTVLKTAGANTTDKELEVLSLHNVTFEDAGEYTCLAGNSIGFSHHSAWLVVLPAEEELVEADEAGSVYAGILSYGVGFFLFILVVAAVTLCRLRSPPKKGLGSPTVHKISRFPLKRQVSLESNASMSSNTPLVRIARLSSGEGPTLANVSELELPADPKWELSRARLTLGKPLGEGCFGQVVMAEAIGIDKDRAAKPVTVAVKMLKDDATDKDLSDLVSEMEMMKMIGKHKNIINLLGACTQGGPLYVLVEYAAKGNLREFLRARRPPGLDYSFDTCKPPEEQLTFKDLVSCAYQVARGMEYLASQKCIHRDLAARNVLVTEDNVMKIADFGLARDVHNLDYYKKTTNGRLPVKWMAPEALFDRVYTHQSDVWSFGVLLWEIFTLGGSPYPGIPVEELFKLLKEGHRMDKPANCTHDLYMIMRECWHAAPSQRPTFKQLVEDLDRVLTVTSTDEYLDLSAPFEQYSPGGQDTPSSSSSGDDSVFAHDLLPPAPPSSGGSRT
FGFR2 (h), sequence (P21802 22-821): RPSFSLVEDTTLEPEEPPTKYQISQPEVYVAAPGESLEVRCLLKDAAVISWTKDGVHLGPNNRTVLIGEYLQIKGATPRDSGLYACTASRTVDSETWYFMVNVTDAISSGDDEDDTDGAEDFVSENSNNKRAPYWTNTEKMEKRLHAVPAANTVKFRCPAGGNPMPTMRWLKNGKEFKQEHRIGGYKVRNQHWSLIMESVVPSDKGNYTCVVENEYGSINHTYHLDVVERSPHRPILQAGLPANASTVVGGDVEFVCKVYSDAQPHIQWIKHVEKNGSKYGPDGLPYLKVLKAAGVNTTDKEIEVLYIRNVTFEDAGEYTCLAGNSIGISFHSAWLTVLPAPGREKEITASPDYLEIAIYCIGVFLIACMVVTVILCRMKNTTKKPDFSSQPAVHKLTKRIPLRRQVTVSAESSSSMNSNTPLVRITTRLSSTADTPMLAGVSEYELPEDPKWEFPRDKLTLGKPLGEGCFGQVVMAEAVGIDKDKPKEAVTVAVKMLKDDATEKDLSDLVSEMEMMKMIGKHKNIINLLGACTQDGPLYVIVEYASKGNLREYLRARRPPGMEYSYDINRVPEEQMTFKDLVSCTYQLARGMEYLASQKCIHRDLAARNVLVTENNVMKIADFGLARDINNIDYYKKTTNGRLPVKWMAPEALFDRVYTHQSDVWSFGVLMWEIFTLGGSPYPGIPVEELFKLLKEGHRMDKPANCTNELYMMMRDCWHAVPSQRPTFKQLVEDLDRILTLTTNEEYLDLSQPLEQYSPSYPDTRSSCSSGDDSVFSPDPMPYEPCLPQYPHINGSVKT
T1 sequence (P11362 whole entry, change not shown): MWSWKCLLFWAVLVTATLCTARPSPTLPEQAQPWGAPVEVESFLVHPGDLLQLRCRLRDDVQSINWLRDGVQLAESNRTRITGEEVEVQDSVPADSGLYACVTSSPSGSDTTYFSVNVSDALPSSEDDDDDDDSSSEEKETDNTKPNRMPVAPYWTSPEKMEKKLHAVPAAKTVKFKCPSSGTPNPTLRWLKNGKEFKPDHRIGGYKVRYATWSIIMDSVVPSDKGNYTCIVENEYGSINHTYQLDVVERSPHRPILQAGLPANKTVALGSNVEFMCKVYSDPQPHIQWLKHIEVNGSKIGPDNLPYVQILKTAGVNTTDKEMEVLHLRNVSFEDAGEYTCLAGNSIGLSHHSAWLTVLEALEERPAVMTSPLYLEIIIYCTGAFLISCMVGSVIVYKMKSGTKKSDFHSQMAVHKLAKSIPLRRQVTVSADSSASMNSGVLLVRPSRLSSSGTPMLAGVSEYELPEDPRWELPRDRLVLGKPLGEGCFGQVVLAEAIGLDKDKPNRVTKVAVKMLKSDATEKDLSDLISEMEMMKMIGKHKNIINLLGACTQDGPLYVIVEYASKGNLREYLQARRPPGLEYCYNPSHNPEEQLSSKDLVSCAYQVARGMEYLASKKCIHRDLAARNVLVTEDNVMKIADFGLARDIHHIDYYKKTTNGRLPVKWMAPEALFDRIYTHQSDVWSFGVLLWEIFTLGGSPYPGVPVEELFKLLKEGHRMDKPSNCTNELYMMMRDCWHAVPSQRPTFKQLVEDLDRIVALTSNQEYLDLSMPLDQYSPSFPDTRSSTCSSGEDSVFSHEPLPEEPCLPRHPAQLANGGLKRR
FGFR4 (h), sequence (P22455 22-802): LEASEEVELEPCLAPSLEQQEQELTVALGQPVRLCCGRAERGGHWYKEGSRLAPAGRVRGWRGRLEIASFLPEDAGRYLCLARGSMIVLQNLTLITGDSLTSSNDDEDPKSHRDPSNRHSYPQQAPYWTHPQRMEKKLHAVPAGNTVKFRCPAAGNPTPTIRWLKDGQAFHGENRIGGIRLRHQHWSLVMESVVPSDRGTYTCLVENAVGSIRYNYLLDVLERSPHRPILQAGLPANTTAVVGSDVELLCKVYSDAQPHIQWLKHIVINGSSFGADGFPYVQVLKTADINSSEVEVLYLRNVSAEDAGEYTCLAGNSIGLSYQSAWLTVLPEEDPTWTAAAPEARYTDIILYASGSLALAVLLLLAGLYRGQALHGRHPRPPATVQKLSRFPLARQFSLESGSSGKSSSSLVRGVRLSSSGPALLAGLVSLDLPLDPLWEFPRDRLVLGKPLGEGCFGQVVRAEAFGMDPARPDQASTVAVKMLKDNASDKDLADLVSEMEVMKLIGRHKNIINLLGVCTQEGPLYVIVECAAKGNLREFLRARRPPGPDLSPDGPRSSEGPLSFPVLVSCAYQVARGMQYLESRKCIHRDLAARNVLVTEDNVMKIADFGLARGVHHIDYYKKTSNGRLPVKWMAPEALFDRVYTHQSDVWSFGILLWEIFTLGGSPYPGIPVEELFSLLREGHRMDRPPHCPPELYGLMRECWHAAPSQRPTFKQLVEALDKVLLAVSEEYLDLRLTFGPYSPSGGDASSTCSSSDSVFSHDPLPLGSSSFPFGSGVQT

| SMILES | IC50 [1, 7] [nM] | IC50 (FGFR4 (h)) [nM] | IC50 [2, 7] [nM] | IC50 [3, 7] [nM] | BAF3-FGFR1 (MIN IL3) pIC50 [4] | BAF3-KDR (MIN IL3) pIC50 [5] | IC50 (FGFR2 (h)) [nM] | BAF3-FGFR3 (MIN IL3) pIC50 [6] | IC50 (FGFR1 (h)) [nM] | IC50 [1] [nM] | IC50 [2] [nM] | IC50 [3] [nM] |
| --- | --- | --- | --- | --- | --- | --- | --- | --- | --- | --- | --- | --- |
| COc1cc(OC)cc(N(Cc2ncc[nH]2)c2ccc3ncc(-c4cnn(C)c4)nc3n2)c1 (racemic) [24-DL-tartrate salt] | > 10000 | 1.12 | > 10000 | > 10000 | 8.47 | 6.30 | 1.32 | 8.21 | 0.355 | – | – | – |
| COc1cc(OC)c(F)c(N(CCCO)c2ccc3ncc(-c4cnn(C)c4)nc3n2)c1F (single isomer, unassigned) [Compound 16] | > 10000 | 25.1 | > 10000 | > 10000 | 8.0 | 6.2 | 15.8 | 7.8 | 10 | – | – | – |
| COc1cc(OC)cc(N(CC(O)C(F)(F)F)c2ccc3ncc(-c4cnn(C)c4)nc3n2)c1 (single isomer, unassigned) [Compound 33] | > 10000 | 1.41 | > 10000 | > 10000 | 7.60 | 5.26 | 2.04 | ~7.64 | 0.871 | – | – | – |
| COCC(O)CN(c1ccc2ncc(-c3cnn(C)c3)nc2n1)c1cc(OC)cc(OC)c1F (single isomer, unassigned) [Compound 58] | > 10000 | 2.14 | > 10000 | > 10000 | 7.51 | 5.97 | 1.95 | 7.43 | 1.35 | – | – | – |
| COc1cc(OC)c(F)c(N(CC(O)COC(C)C)c2ccc3ncc(-c4cnn(C)c4)nc3n2)c1 (single isomer, unassigned) [Compound 75] | > 10000 | 2.24 | > 10000 | > 10000 | 7.76 | 6.16 | 2.63 | 7.75 | 2.14 | – | – | – |
| COc1cc(OC)c(F)c(N(c2ccc3ncc(-c4cnn(C)c4)nc3n2)C(CO)COC(C)C)c1 (single isomer, unassigned) [Compound 76] | > 10000 | 214 | > 10000 | > 10000 | 5.55 | <5 | 468 | 5.64 | 302 | – | – | – |
| COc1cc(/N=c2\ccc3ncc(-c4cnn(C)c4)nc3n2CC(O)COC(C)C)c(F)c(OC)c1 (single isomer, unassigned) [Compound 77] | > 10000 | 3.02 | > 10000 | > 10000 | 7.37 | 5.33 | 3.16 | 7.38 | 2.69 | – | – | – |
| COc1cc(OC)c(Cl)c(/N=c2\ccc3ncc(-c4cnn(C)c4)nc3n2CC2CCC(=O)N2)c1Cl (single isomer, unassigned) [Compound 87] | > 10000 | 38.9 | > 10000 | > 9120 | 6.84 | 5.45 | 6.03 | ~6.93 | 4.07 | – | – | – |
| COc1cc(OC)c(Cl)c(N(CC2CCC(=O)N2)c2ccc3ncc(-c4cnn(C)c4)nc3n2)c1Cl (single isomer, unassigned) [Compound 88] | > 10000 | 42.7 | > 10000 | > 10000 | 6.68 | 5.14 | 9.12 | 6.57 | 12.9 | – | – | – |
| COc1ccc(Cl)c(/N=c2\ccc3ncc(-c4cnn(C)c4)nc3n2CC2CCC(=O)N2)c1Cl (single isomer, unassigned) [Compound 89] | > 10000 | ~1120 | > 10000 | > 10000 | 5.18 | <5 | 70.8 | 5.14 | 93.3 | – | – | – |
| COc1cc(OC)c(F)c(N(CC2COC(=O)N2)c2ccc3ncc(-c4cnn(C)c4)nc3n2)c1 (single isomer, unassigned) [Compound 111] | > 10000 | 1.58 | > 10000 | > 10000 | 7.79 | 5.61 | 2 | 7.58 | 1.15 | – | – | – |
| COc1cc(/N=c2\ccc3ncc(-c4cnn(C)c4)nc3n2CC2COC(=O)N2)c(F)c(OC)c1 (single isomer, unassigned) [Compound 112] | > 10000 | 2.04 | > 10000 | > 10000 | 7.23 | 5.65 | 1.66 | ~7.27 | 1.26 | – | – | – |
| CNCCN(c1ccc2ncc(-c3cnn(C)c3)nc2n1)c1c(F)c(OC)cc(OC)c1F [Compound 3] | > 10000 | 6.46 | > 10000 | > 10000 | 8.38 | 6.48 | 3.09 | ~8.04 | 1.35 | – | – | – |
| COc1cc(OC)c(F)c(N(CCNC(C)C)c2ccc3ncc(-c4cnn(C)c4)nc3n2)c1F [Compound 5] | > 10000 | 6.31 | > 10000 | 6310 | 8.7 | 6.35 | 3.98 | 8.3 | 1.58 | – | – | – |
| COCC(O)CN(c1cc(OC)cc(OC)c1)c1ccc2ncc(-c3cnn(C)c3)nc2n1 (stereo not drawn) [Compound 7] | > 10000 | 6.31 | > 10000 | > 10000 | 7.0 | 5.1 | 3.98 | 7.1 | 3.16 | – | – | – |
| COc1cc(OC)c(F)c(N(Cc2ncccn2)c2ccc3ncc(-c4cnn(C)c4)nc3n2)c1 [Compound 9] | – | 25.1 | – | – | 7.4 | 5.95 | 12.6 | ~7.2 | 5.62 | > 10000 | > 10000 | > 10000 |
| COc1cc(OC)c(F)c(N(Cc2cnccn2)c2ccc3ncc(-c4cnn(C)c4)nc3n2)c1F [Compound 10] | > 10000 | 100 | > 10000 | > 10000 | 8.1 | 6.2 | 35.5 | 7.85 | 15.8 | – | – | – |
| COc1cc(OC)c(F)c(N(CCO)c2ccc3ncc(-c4cnn(C)c4)nc3n2)c1F [Compound 20] | > 10000 | 3.98 | > 10000 | > 10000 | 8.35 | 6.53 | 126 | 8.15 | 25.1 | – | – | – |
